As a reminder, the IC50 is the concentration that gives 50% inhibition. A lower IC50 goes with inhibition by little substance.

Common to all, as to assay type: biochemical
The target in experiment [1] is JAK2 (Homo sapiens, UniProt O60674). In words: JAK kinase inhibition assay (EZ Reader, peptide substrate phosphorylation) - JAK2. As to conditions: JAK2 kinase 1 nM; 8 concentration points, max 10 μM. An excerpt: (§1) Assay for Identifying Inhibitory Effects of Compounds on JAK Kinases
(§2) Janus kinases (JAK), including JAK1, JAK2, JAK3 and Tyk2, transduce a cytokine-mediated signal through a JAK-STAT pathway. The kinases are 120-140 kDa in size and have 7 determined homology regions: JH1 to JH7. JH1 is an important region for enzymatic activity and has typical characteristics of tyrosine kinases. Phosphorylation of tyrosine leads to a change in the conformation of JAK protein, thereby promoting binding of substrate. The JAK-STAT system includes three main parts: receptors penetrating a cell membrane, Janus kinases binding to the receptors, and signal transducers and activators of transcription (STAT) for transmitting signals to a nucleus and DNA. When cytokines bind to receptors, JAK phosphorylates the receptors and attracts STAT proteins. The STAT proteins are also phosphorylated and combined with one another to form dimers. The dimers enter the nucleus and bind to DNA, thereby leading to gene transcription.
(§3) EZ Reader from PerkinElmer can be used to detect the phosphorylation of polypeptide substrates catalyzed by kinases. The device is based on microfluidic techniques, and can directly detect fluorescently labeled substrates and products. The separation step is achieved by controlling the pressure and electric field strength in the microfluidic chip. In kinase assays, a product conversion ratio is usually controlled to be 20-30%. A biological test is used to identify inhibitory effects of compounds on JAKs.
(§4) Compound powder was dissolved in DMSO, sealed and stored in a freezer under −20° C. The in-house compound Ref1 was used as a positive control for JAK1, JAK2 and Tyk2 tests, and Ref2 was used as a positive control for JAK3 tests.
(§5) S2.8. Assay buffer: 20 mM HEPES buffer, pH 7.4, 10 mM magnesium chloride, 0.01% bovine serum albumin BSA, 0.0005% Tween-20 and 1 mM dithiothreitol solution.
(§6) S2.9. Stop buffer: 180 mM HEPES buffer, 20 mM ethylenediaminetetraacetic acid and 0.2% coating reagent 3.
(§7) S2.10. Separation buffer: 100 mM HEPES buffer, 10 mM ethylenediaminetetraacetic acid, 0.0005% Tween 20, 0.1% coating reagent 3 and 1% dimethyl sulfoxide.
The compound was dissolved in dimethyl sulfoxide and diluted to 10 mM concentration, a certain volume of solution was taken and diluted to 0.6 mM concentration, 10 μL of the 0.6 mM dilution was added to a 384-well microplate, and then was diluted 3-fold with a total of 8 concentration points.
Positive control (HPE1): Ref1, final concentration: 10 μM […]
(§8) Negative control (ZPE): DMSO, final content: 1.6%
(§9) Compounds: maximum final concentration: 10 μM; 3-fold dilution, 8 concentration points and 2 duplicates.
(§10) S4.1. 250 nL of the compound was added to each well of the assay microplate by using ECHO, and centrifuged at 1000 rpm for 1 minute.
(§11) S4.2. 5 μL of the assay buffer was added and agitated for a few seconds to fully dissolve the compound.
(§12) S4.3. 5 μL of 3× substrate solution and 5 μL of 3× kinase solution were added and centrifuged at 800 rpm for 1 minute.
(§13) S4.4. Final concentrations of JAK1, JAK2, JAK3 and Tyk2 kinases in the reaction system were 20 nM, 1 nM, 1 nM and 1 nM respectively.
(§14) S4.5. Incubation at room temperature, where kinases had time differences, and different batches of kinases had time differences.
(§15) S4.6. When 20%-30% of the reaction completed, 15 μL of stop buffer was added to stop the reaction, and centrifuged at 1000 rpm for 2 minutes.
(§16) S4.7. The microplates were placed on EZ Reader for reading.
(§17) S4.8. Readings on EZ Reader were calculated by using a peak height, where product conversion ratio (%)=product/(product+substrate)*100.
(§18) 5. Data Processing: IC50 calculation
(§19) A graphing software Xlfit was used to form a concentration curve of the test compound, and an IC50 value was calculated.
(§20) “A” means “≥10 μM”; “B” means “≥1 μM and <10 μM”; “C” means “≥0.1 μM and <1 μM”; and “D” means “<0.1 μM”.

Experiment [2] has as its target JAK1 (Homo sapiens, UniProt P23458). In words: JAK kinase inhibition assay (EZ Reader, peptide substrate phosphorylation) - JAK1. As to conditions: JAK1 kinase 20 nM; 8 concentration points, max 10 μM. The procedure, abridged: (§21)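 Microfluidic mobility-shift detection of fluorescent peptide substrate phosphorylation, with JAK1 at 20 nM and JAK2, JAK3 and Tyk2 each at 1 nM final, in 20 mM HEPES pH 7.4, 10 mM MgCl2, 1 mM DTT. Reactions run at room temperature to 20–30% conversion, then EDTA-stopped. Compounds tested at 8 three-fold dilutions from 10 μM top final; IC50 from conversion curves.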

The target of experiment [3] is T1, JAK3 (Homo sapiens, UniProt P52333).
T1 sequence (P52333 1-1124): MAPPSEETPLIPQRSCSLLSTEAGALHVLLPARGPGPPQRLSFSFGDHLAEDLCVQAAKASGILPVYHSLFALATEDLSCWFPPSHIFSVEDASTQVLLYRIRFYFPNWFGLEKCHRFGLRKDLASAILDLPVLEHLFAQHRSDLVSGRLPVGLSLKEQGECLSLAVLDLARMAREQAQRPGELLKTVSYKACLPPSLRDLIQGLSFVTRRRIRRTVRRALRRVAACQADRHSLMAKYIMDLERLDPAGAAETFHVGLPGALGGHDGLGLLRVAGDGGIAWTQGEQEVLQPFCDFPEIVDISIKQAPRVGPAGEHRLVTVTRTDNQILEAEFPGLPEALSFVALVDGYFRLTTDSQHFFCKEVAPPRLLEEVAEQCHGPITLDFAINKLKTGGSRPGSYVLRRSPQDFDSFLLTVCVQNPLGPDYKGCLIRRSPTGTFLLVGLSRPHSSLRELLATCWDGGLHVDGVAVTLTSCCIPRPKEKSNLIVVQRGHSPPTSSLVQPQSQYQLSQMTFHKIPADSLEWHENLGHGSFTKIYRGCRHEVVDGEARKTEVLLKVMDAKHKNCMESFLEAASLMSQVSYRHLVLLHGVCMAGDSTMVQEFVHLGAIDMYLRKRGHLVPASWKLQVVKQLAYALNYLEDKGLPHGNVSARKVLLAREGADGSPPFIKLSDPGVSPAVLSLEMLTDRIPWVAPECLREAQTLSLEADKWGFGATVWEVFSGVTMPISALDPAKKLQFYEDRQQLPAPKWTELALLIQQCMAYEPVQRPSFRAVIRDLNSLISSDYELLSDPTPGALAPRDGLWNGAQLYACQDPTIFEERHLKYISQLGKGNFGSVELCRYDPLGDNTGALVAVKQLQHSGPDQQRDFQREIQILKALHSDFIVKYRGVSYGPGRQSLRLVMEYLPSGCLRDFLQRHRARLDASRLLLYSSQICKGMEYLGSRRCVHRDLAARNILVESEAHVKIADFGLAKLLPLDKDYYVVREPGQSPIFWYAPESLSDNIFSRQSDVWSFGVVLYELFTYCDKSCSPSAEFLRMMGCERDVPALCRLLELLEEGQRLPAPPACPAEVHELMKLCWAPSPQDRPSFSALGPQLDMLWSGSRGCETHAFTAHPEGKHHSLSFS
In words: JAK kinase inhibition assay (EZ Reader, peptide substrate phosphorylation) - JAK3. As to conditions: JAK3 kinase 1 nM; 8 concentration points, max 10 μM.
Excerpt: as §1, §2, §3, §4, §5, §6, §7
The compound was dissolved in dimethyl sulfoxide and diluted to 10 mM concentration, a certain volume of solution was taken and diluted to 0.6 mM concentration, 10 μL of the 0.6 mM dilution was added to a 384-well microplate, and then was diluted 3-fold with a total of 8 concentration points. […]
Positive control (HPE1): Ref2, final concentration: 10 μM
as §8, §9, §10, §11, §12, §13, §14, §15, §16, §17, §18, §19, §20

Experiment [4] has as its target Tyk2 (Homo sapiens, UniProt P29597). In words: JAK kinase inhibition assay (EZ Reader, peptide substrate phosphorylation) - Tyk2. As to conditions: Tyk2 kinase 1 nM; 8 concentration points, max 10 μM. The procedure, abridged: as §21

Sequence of Tyk2 (P29597 whole entry): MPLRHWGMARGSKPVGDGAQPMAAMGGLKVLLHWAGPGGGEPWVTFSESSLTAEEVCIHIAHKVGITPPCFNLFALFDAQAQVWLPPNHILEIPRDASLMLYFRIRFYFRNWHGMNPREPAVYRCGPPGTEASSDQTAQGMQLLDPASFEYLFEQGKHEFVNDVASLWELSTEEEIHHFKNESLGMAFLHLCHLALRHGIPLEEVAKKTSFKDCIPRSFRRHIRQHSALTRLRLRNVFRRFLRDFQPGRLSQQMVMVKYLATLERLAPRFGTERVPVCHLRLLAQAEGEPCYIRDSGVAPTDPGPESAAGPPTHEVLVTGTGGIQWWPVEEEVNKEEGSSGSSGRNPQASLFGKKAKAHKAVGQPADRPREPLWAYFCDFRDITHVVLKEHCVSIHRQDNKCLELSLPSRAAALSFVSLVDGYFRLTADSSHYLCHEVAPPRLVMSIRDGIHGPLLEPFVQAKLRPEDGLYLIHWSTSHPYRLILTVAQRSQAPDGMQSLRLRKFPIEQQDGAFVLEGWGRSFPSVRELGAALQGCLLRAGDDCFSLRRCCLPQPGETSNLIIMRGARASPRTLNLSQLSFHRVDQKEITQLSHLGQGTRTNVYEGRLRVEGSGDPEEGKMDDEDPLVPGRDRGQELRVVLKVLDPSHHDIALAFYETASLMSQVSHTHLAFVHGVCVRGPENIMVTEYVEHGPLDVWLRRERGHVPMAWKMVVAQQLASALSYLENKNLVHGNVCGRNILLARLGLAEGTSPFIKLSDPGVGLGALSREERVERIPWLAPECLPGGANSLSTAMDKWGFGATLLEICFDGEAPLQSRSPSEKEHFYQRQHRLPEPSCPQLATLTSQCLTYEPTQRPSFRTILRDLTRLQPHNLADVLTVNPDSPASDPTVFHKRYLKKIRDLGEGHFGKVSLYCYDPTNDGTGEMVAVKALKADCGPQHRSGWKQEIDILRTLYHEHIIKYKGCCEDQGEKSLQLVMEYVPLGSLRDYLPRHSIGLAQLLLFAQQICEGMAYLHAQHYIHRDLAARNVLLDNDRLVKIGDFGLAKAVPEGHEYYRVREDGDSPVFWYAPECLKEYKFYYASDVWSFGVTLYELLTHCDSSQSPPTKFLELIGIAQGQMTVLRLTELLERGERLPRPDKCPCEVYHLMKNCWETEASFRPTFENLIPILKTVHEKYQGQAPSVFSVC
Sequence of JAK1 (P23458 whole entry): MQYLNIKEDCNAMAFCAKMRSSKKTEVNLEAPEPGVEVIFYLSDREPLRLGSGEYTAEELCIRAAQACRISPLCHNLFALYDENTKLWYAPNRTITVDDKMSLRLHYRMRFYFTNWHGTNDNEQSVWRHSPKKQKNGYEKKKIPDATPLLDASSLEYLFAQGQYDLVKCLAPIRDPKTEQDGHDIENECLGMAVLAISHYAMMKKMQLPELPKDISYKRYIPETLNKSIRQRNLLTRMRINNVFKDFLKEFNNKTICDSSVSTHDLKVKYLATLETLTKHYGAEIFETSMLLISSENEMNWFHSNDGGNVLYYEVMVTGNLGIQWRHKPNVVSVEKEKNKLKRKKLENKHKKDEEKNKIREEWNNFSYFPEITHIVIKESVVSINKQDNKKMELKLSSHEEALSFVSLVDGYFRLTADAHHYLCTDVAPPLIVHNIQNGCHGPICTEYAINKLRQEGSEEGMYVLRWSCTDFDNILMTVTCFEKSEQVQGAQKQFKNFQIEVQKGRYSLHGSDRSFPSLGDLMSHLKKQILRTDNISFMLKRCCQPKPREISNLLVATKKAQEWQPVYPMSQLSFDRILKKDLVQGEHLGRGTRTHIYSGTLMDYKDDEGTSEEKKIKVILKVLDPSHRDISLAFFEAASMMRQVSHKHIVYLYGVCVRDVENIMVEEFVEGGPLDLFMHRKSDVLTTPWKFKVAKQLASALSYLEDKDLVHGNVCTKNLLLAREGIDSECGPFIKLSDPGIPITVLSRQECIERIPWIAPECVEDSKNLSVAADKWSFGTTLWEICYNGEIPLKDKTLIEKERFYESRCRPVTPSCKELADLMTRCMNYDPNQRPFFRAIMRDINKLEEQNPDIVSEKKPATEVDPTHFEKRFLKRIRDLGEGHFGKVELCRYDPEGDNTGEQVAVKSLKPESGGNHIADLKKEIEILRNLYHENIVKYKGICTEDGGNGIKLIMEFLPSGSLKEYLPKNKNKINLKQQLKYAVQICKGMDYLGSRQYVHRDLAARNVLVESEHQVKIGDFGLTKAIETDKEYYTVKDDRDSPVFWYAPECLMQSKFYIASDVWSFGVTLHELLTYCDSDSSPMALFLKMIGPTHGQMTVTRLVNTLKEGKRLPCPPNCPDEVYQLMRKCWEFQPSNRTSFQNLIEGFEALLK
Sequence of JAK2 (O60674 whole entry): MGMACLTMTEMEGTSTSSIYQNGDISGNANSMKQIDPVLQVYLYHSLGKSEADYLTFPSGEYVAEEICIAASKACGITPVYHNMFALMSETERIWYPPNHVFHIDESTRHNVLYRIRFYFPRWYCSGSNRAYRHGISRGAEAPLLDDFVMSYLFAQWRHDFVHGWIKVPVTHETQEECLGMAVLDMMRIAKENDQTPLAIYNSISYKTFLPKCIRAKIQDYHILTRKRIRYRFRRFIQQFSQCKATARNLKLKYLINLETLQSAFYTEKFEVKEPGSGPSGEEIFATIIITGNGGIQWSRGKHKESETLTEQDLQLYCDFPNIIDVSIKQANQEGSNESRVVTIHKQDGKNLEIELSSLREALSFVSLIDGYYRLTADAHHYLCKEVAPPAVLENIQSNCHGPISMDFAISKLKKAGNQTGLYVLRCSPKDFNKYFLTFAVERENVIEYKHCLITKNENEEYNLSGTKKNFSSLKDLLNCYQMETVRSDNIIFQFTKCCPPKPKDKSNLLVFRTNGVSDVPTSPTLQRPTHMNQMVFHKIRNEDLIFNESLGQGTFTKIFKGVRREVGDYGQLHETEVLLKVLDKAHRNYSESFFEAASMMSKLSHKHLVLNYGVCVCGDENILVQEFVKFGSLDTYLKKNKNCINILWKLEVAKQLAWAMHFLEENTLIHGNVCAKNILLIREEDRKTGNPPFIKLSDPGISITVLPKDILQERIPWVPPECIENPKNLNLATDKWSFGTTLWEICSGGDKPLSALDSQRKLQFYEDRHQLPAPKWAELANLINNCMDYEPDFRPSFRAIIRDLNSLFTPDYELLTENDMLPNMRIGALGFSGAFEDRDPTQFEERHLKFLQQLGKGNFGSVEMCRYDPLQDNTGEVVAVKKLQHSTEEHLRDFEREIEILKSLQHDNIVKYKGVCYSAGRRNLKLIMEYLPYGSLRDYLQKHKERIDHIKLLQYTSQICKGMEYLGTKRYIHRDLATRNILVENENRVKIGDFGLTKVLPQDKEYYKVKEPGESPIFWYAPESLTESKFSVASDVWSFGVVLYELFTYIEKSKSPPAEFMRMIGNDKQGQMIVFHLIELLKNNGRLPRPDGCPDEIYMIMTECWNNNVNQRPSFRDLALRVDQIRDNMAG

`Cn1cc(Nc2nccc(-c3ccc(NS(=O)(=O)C4CC4)cc3)n2)cn1` [TDM-180767, N-(4-(2-((1-methyl-1H-pyrazol-4-yl)amino)pyrimidin-4-yl)phenyl)cyclopropanesulfo]: the IC50 lay within 0.1 to 1 µM in experiment [1], 0.1 to 1 µM in experiment [2], 1 to 10 µM in experiment [3] and 0.1 to 1 µM in experiment [4].

`CCS(=O)(=O)Nc1ccc(-c2ccnc(Nc3cnn(C)c3)n2)cc1` [TDM-180768, N-(4-(2-((1-methyl-1H-pyrazol-4-yl)amino)pyrimidin-4-yl)phenyl)ethanesulfonamide]: the IC50 in experiment [1] lay in the range of 0.1 to 1 µM; in experiment [2], 0.1 to 1 µM; in experiment [3], 1 to 10 µM; in experiment [4], 0.1 to 1 µM.

As to `Cc1cc(-c2ccnc(Nc3cnn(C)c3)n2)ccc1C(=O)NCC(F)(F)F` [TDM-180780, 2-methyl-4-(2-((1-methyl-1H-pyrazol-4-yl)amino)pyrimidin-4-yl)-N-(2,2,2-trifluoroethyl)benzamide], the concentration for half-maximal inhibition (IC50) in experiment [1] was 1 to 10 µM; in experiment [2], 0.1 to 1 µM; in experiment [3] it was above 10 µM; in experiment [4] it was 0.1 to 1 µM.

As to `Cn1cc(Nc2nccc(-c3ccc(NC(=O)C4(C)CC4)cc3)n2)cn1` [TDM-180802, 1-methyl-N-(4-(2-((1-methyl-1H-pyrazol-4-yl)amino)pyrimidin-4-yl)phenyl)cyclopropane-1-carboxamide], the IC50 is 0.1 to 1 µM in experiment [1], 0.1 to 1 µM in experiment [2], at least 10 µM in experiment [3] and 0.1 to 1 µM in experiment [4].

On to `Cn1cc(Nc2nccc(-c3ccc(NC(=O)C4(F)CC4)cc3)n2)cn1` [TDM-180803, 1-fluoro-N-(4-(2-((1-methyl-1H-pyrazol-4-yl)amino)pyrimidin-4-yl)phenyl)cyclopropane-1-carboxamide], for which the IC50 is 0.1 to 1 µM in experiment [1], 0.1 to 1 µM in experiment [2], at least 10 µM in experiment [3] and 0.1 to 1 µM in experiment [4].

For `Cn1cc(Nc2nccc(-c3ccc(NC(=O)CC4CC4)cc3)n2)cn1` [TDM-180804, 2-cyclopropyl-N-(4-(2-((1-methyl-1H-pyrazol-4-yl)amino)pyrimidin-4-yl)phenyl)acetamide], the IC50 in experiment [1] fell in the range of 0.1 to 1 µM; in experiment [2] it was 0.1 to 1 µM; in experiment [3], 1 to 10 µM; in experiment [4], 0.1 to 1 µM.

Turning to `Cn1cc(Nc2nccc(-c3ccc(NC(=O)C(F)F)cc3)n2)cn1` [TDM-180805, 2,2-difluoro-N-(4-(2-((1-methyl-1H-pyrazol-4-yl)amino)pyrimidin-4-yl)phenyl)acetamide], the IC50 fell in the range of 0.1 to 1 µM in experiment [1], 0.1 to 1 µM in experiment [2], 1 to 10 µM in experiment [3] and 0.1 to 1 µM in experiment [4].

On to `Cn1cc(Nc2nccc(-c3ccc(NC(=O)C4CCC4)cc3)n2)cn1` [TDM-180813, N-(4-(2-((1-methyl-1H-pyrazol-4-yl)amino)pyrimidin-4-yl)phenyl)cyclobutanemethyl], for which the IC50 in experiment [1] is 0.1 to 1 µM; in experiment [2] it was 0.1 to 1 µM; in experiment [3] it was at least 10 µM; in experiment [4], 1 to 10 µM.

As to `COCCC(=O)Nc1ccc(-c2ccnc(Nc3cnn(C)c3)n2)cn1` [TDM-180814, 3-methoxy-N-(5-(2-((1-methyl-1H-pyrazol-4-yl)amino)pyrimidin-4-yl)pyridin-2-yl)propanamide], the IC50 in experiment [1] lay within 0.1 to 1 µM; in experiment [2], 0.1 to 1 µM; in experiment [3], 1 to 10 µM; in experiment [4], 1 to 10 µM.

Turning to `Cn1cc(Nc2nccc(-c3ccc(NC(=O)CC4CC4)nc3)n2)cn1` [TDM-180818, 2-cyclopropyl-N-(5-(2-((1-methyl-1H-pyrazol-4-yl)amino)pyrimidin-4-yl)pyridin-2-yl)acetamide], the IC50 in experiment [1] fell in the range of 0.1 to 1 µM; in experiment [2] it was 0.1 to 1 µM; in experiment [3] it was 1 to 10 µM; in experiment [4], 0.1 to 1 µM.

On to `Cn1cc(Nc2nccc(-c3ccc(NC(=O)C4CC4)nc3)n2)cn1` [TDM-180819, N-(5-(2-((1-methyl-1H-pyrazol-4-yl)amino)pyrimidin-4-yl)pyridin-2-yl)cyclopropylcarboxamide], for which the IC50 lay in the range of 0.1 to 1 µM in experiment [1], 0.1 to 1 µM in experiment [2], 1 to 10 µM in experiment [3] and 0.1 to 1 µM in experiment [4].

Turning to `Cn1cc(Nc2nccc(-c3ccc(NS(=O)(=O)Cc4ccccc4)cc3)n2)cn1` [TDM-180820, N-(4-(2-((1-methyl-1H-pyrazol-4-yl)amino)pyrimidin-4-yl)phenyl)-1-phenylmethanesulfonamide], the IC50 in experiment [1], in experiment [2], in experiment [3] and in experiment [4] was below 0.1 µM throughout.

Regarding `Cn1cc(Nc2nccc(-c3ccc(NC(=O)C4(F)CC4)nc3)n2)cn1` [TDM-180821, 1-fluoro-N-(5-(2-((1-methyl-1H-pyrazol-4-yl)amino)pyrimidin-4-yl)pyridin-2-yl)cyclopropane-1-carboxamide], the IC50 in experiment [1] is 0.1 to 1 µM; in experiment [2], 0.1 to 1 µM; in experiment [3], at least 10 µM; in experiment [4] it was 0.1 to 1 µM.

The values above are taken from patent US20240174648A1, “Small Molecule Compound” (Technoderma Medicines Pte Ltd, priority 2019, published 2024).
